Legend:
[1] = Caco-2 permeability test (C-5.1); assay type: in vitro ADME, human; conditions: human, Caco-2 (2 μM)
Method: The in vitro permeation of a test compound across a Caco-2 cell monolayer is a well-established assay system to predict the permeability from the gastro-intestinal tract (1). The permeability of the compounds of the present invention in such Caco-2 cells was determined as described below:
Human caco-2 cells were seeded on 24-well insert plates and were allowed to grow for 14-16 days. For permeability studies, the test compounds were dissolved in DMSO and diluted to the final test concentration of 2 μM with transport buffer [Hanks' Buffered Salt Solution, Gibco/Invitrogen, further supplemented with glucose and HEPES]. For determination of the apical to basolateral permeability (PappA-B), the test compound solution was added to the apical side of the cell monolayer and transport buffer to the basolateral side of the monolayer; for determination of the basolateral to apical permeability (PappB-A), the test compound solution was added to the basolateral side of the cell monolayer and transport buffer to the apical side of the monolayer. Samples were taken from the donor compartment at the beginning of the experiment to confirm mass balance. After an incubation of 2 h at 37° C., samples were taken from both compartments. Samples were analyzed by LC-MS/MS, and the apparent permeability coefficients were calculated. Lucifer Yellow permeability was assayed for each cell monolayer to ensure cell monolayer integrity, and the permeability of Atenolol (low permeability marker) and Sulfasalazine (marker for active excretion) was determined for each batch as quality control.

[2] = Protein binding via Transil assay, rat plasma; assay type: in vitro ADME; conditions: Rat Wistar plasma, Transil assay
Text: The distribution of a test substance between Transil® (phosphatidylcholine lipid bilayers immobilized on silica beads) and plasma is a characteristic feature of any pharmaceutical compound and is dependent on its extent of binding to plasma proteins. By comparing the distribution between Transil® and buffer with the distribution between Transil® and plasma of any species of interest, the unbound fraction in the plasma of the respective animal species can be calculated in vitro. The respective plasma and buffer concentrations were determined via a radioactivity analysis. A detailed description of the method and its validation was published by Schuhmacher et al. (2).

efflux ratio at 2 h, 2 μM [1]: 20 ± 3.5
Papp A→B at 2 h, 2 μM ([1]; concentration per compound 2.0 or 2.4 μM, read-out: Papp A-B (mean +/− SD)): 31 ± 3.9 nm/s
Papp B→A at 2 h, 2 μM ([1]; concentration per compound 2.0 or 2.4 μM, read-out: Papp B-A (mean +/− SD)): 631 ± 71 nm/s
fraction unbound [2]: 0.00351
Compound: O=C(O)CCCCN(CCc1ccccc1OCc1ccc(CCc2ccccc2)cc1)Cc1ccc(C(=O)O)cc1 [comparative example 1, 4-[((4Carboxybutyl)-{2-[(4-phenethylbenzyl)oxy]phenethyl}amino)methyl]benzoic acid]
